Results published in patent publication US8110544B2, “RasGAP derived peptide for selectively killing cancer cells” (Universite de Lausanne, priority 2003, dated 2012).

Experiments:
NFκB activity = assay: NFκB firefly luciferase reporter assay in U2OS cells; format: cell-based, human; settings: 20 μM peptide or cisplatin, 20 hours
Procedure: U2OS Cells (1×10^5) were plated in 6 well plates and transfected with 1 μg of a firefly luciferase reporter plasmid for NFκB activity and 0.1 μg of a plasmid encoding the Renilla luciferase. The cells were treated one day later with the indicated concentrations of cisplatin in the absence or in the presence of 20 μM HV-TAT48-57 or TAT-RaSGAP317-326 peptides during 20 hours. The data represent the firefly luciferase activity normalized to the Renilla luciferase activity and expressed as fold increase of the basal NFκB activity obtained in control untreated cells. The results correspond to the mean±standard deviation of three independent determinations. Asterisks denote significant differences between the indicated conditions (**, p<0.01; ***, p<0.001).
U2OS cells were transfected with 1 μg of a firefly luciferase reporter plasmid for NFκB activity, 0.1 μg of a plasmid encoding the Renilla luciferase, 0.5 μg of a GFP-expressing plasmid (to label the transfected cells), 1 μg of a plasmid encoding IκBαΔN2 that inhibit the NFκB pathway or with 1 μg an empty pcDNA3 vector. The cells were incubated one day later with increasing concentrations of cisplatin in the presence of 20 μM HIV-TAT48-57 or 20 μM TAT-RasGAP317-326 for an additional 20 hour period. The cells were then lysed and the NFκB activity assessed as described in panel A, except that the results were expressed as fold increase of the NFκB activity detected in cells incubated with the control HV-TAT48-57 peptide.
Luciferase assay was performed using the Dual-Luciferase® Reporter Assay from Promega (cat. no E1910). […] The firefly luciferase activity was recorded by mixing 20 μl of the lysate with 25 μl of the LARII Reagent and the Renilla luciferase activity was recorded by adding to the previous mix 25 μl of the Stop & Glo Reagent. For each measurement, light emission was quantified during 12 seconds using a Lumat LB 9501 luminometer (Berthold Technologies, Zurich, Switzerland).

p38 MAPKs = assay: Western blot of phospho-p38 in U2OS cells; format: cell-based, human; settings: 20 μM peptide
Procedure: (§1) U2OS cells (2×10^5) were plated in 6 well plates and treated for the indicated periods of time with the indicated combinations of the HW-TAT48-57 or TAT-RasGAP317-326 peptides (at a 20 μM concentration) and cisplatin (at a 30 μM concentration). Positive controls for JNK and p38 activation were obtained following stimulation of the cells with 1 μg/ml anisomycine during 3 hours and with 0.5 M sorbitol for 30 min, respectively. The quantitations depicted under the Western blots were performed on the 12-hour bands and normalized against the positive controls. The results correspond to the mean±standard deviation of three independent experiments. […]

JNK = assay: Western blot of phospho-JNK in U2OS cells; format: cell-based, human; settings: 20 μM peptide
Procedure: as §1

HeLa cells [1] = assay: Apoptosis (pycnotic nuclei) of HeLa cells transfected with RasGAP constructs and treated with genotoxins; format: cell-based, human; settings: for potentiation of cisplatin-induced apoptosis in HeLa cells: transfected construct, 0.15 μM cisplatin, apoptosis scored 20 hours later
Procedure: HeLa cells (2×10^6) were plated in 10-cm-diameter Petri dishes, transfected with 1 μg of GFP-expressing plasmid (to label the transfected cells) together with 2 μg of an empty pcDNA3 plasmid or 2 μg of a pcDNA3 vector encoding fragment N2. One day following the transfection, the cells were incubated for 24 hours with the indicated concentrations of cisplatin, adriamycin or mitoxantrone. The number of GFP-positive cells displaying pycnotic nucleus was then scored.
HeLa cells were transfected as described in FIG. 1 with plasmids endoding the constructs described in FIG. 2A. HeLa cells were then treated or not with 0.15 μM cisplatin and the extent of apoptosis was determined 20 hours later. The results correspond to the mean±standard deviation of three independent determinations. Asterisks denote a significant difference between the cells treated with 0.15 μM cisplatin and the cells without treatment (**, p<0.01; ***, p<0.001).
HeLa and MCF-7 cells were maintained in RPMI 1640 (Sigma; cat. no 8758) containing 10% newborn calf serum (Sigma; cat. no N4637) at 37° C. and 5% CO2. U2OS cells were maintained in DMEM (Sigma; cat. no 5796) containing 15% foetal calf serum (Sigma; cat. no F7524) at 37° C. and 5% CO2. H-Meso-1 cells were maintained in RPMN 1640 containing 10% foetal calf serum at 37° C. and 5% CO2. […] After 8 hours at 37° C. and 5% CO2, the medium was replaced with fresh culture medium and the cells were further incubated for 16-24 hours before being analyzed.
Apoptosis was determined by scoring the number of cells displaying pycnotic nuclei. Nuclei of live cells were labeled with Hoechst 33342 (10 μg/ml final concentration) for about 5 minutes and the cells were then analyzed (at least 400 cells per condition) using an inverted Leica DMIRB microscope equipped with fluorescence and transmitted light optics. […] In this case, the extent of apoptosis was assessed in the transfected cells only. […]

HeLa cells [2] = settings: Yang and Widmann 2001; cited from earlier work

## N.N.[Cl][Pt][Cl] [cisplatin, reference compound]
NFκB activity
  NFkB activation in U2OS cells (single agent): activated

## GRKKRRQRRR [HIV-TAT48-57, reference compound]
p38 MAPKs
  activation of p38 MAPK pathway by peptide alone: neither the control HIV-TAT48-57 peptide nor the TAT-RasGAP317-326 peptide activated these MAPK pathways
JNK
  activation of JNK pathway by peptide alone: neither the control HIV-TAT48-57 peptide nor the TAT-RasGAP317-326 peptide activated these MAPK pathways

## WMWVTNLRTD (listed as Homo sapiens) [317-326, 10 amino acid long peptide expressed from a transfected construct]
HeLa cells [1]
  potentiation of cisplatin-induced apoptosis in HeLa cells: potentiated the ability of cisplatin to kill HeLa cells

B1: fragment N2: human RasGAP amino acids 158 to 455, 36 kDa, expressed from plasmid N2.dn3 (protein, UniProt P20936 158-455, looked up, fragment)
chain: SLDGPEYEEEEVAIPLTAPPTNQWYHGKLDRTIAEERLRQAGKSGSYLIRESDRRPGSFVLSFLSQMNVVNHFRIIAMCGDYYIGGRRFSSLSDLIGYYSHVSCLLKGEKLLYPVAPPEPVEDRRRVRAILPYTKVPDTDEISFLKGDMFIVHNELEDGWMWVTNLRTDEQGLIVEDLVEEVGREEDPHEGKIWFHGKISKQEAYNLLMTVGQVCSFLVRPSDNTPGDYSLYFRTNENIQRFKICPTPNNQFMMGGRYYNSIGDIIDHYRKEQIVEGYYLKEPVPMQDQEQVLNDTVD
HeLa cells [1]; HeLa cells expressing fragment N2 vs empty pcDNA3, cisplatin, adriamycin, mitoxantrone, 24 hours
  sensitivity of HeLa cells towards the various drugs relative to control cells: at least 10 times
HeLa cells [2]
  ability of cisplatin to kill the HeLa tumor cell line: enhances the ability of cisplatin to kill the HeLa tumor cell line

B2: SH2 domain: human RasGAP amino acids 158-277, expressed from plasmid SH2.dn3 (protein, UniProt P20936 158-277, looked up, fragment)
chain: SLDGPEYEEEEVAIPLTAPPTNQWYHGKLDRTIAEERLRQAGKSGSYLIRESDRRPGSFVLSFLSQMNVVNHFRIIAMCGDYYIGGRRFSSLSDLIGYYSHVSCLLKGEKLLYPVAPPEP
modifications: SH2 domain
notes: human RasGAP amino acids 158-277, expressed from plasmid SH2.dn3
HeLa cells [1]
  potentiation of cisplatin-induced apoptosis in HeLa cells: did not enhance the ability of cisplatin to kill HeLa cells
